Data on 67 compounds can be found in patent publication US9393221B2, “Methods and compounds for reducing intracellular lipid storage” (THE GENERAL HOSPITAL CORPORATION, priority 2011, dated 2016).

Where a name gives a salt, the structure may show the parent alone.

The test system of the first assay is ATGL-KO iPSCs. In words: High throughput iPSC chemical screening, Oil Red O (ORO) lipid accumulation. On Z-score: test concentration or dose not given here. The format is cell-based, mouse.
Settings: not given
As to `Cc1c(C)c2c(c(C)c1O)CC[C@@](C)(CCC[C@H](C)CCC[C@H](C)CCCC(C)C)O2` [Tocopherol (R,S)], the Z-score is recorded as −1.721.

The assay is the same for the next values; noted with them: glycolytic switch compounds.
In the case of `CC/C(=C(\c1ccccc1)c1ccc(OCCN(C)C)cc1)c1ccccc1` [Tamoxifen citrate], the “Rank in normalized ORO score from screen” value came to 130.

With `CCC(=O)O[C@H]1CC[C@H]2[C@@H]3CCC4=CC(=O)CC[C@]4(C)[C@H]3CC[C@]12C` [Testosterone propionate], the “Rank in normalized ORO score from screen” value was found to be 857.

Still in this assay, the particulars now being: normalized ORO level vs DMSO-treated cells; compound present during 7 days differentiation, 96-well; negative = decrease in lipid accumulation.
Regarding `COc1cnc(NS(=O)(=O)c2ccc(N)cc2)nc1` [Sulfameter], the Z-score is listed as −0.1501.

Turning to `Cc1cc(C)nc(NS(=O)(=O)c2ccc(N)cc2)n1` [Sulfamethazine sodium salt], the Z-score is reported as 1.431.

Consider `Cc1nnc(NS(=O)(=O)c2ccc(N)cc2)s1` [Sulfamethizole], for which the Z-score is −0.7734.

`Cc1cc(NS(=O)(=O)c2ccc(N)cc2)no1` [Sulfamethoxazole] registered a Z-score of −0.4061.

In turn, `COc1ccc(NS(=O)(=O)c2ccc(N)cc2)nn1` [Sulfamethoxypyridazine] showed a Z-score of −0.0234.

The compound `COc1cc(NS(=O)(=O)c2ccc(N)cc2)ncn1` [Sulfamonomethoxine] yielded a Z-score of −1.3171.

As for `Nc1ccc(S(N)(=O)=O)cc1` [Sulfanilamide], the Z-score is given as 0.2959.

`Nc1ccc(S(=O)(=O)Nc2ccnn2-c2ccccc2)cc1` [Sulfaphenazole] had a Z-score of −0.2854.

For the compound `Nc1ccc(S(=O)(=O)Nc2ccccn2)cc1` [Sulfapyridine], the Z-score is 0.5256.

In the case of `Nc1ccc(S(=O)(=O)Nc2cnc3ccccc3n2)cc1` [Sulfaquinoxaline sodium salt], the Z-score worked out at 0.579.

`O=C(O)c1cc(/N=N/c2ccc(S(=O)(=O)Nc3ccccn3)cc2)ccc1O` [Sulfasalazine] registered a Z-score of −1.0569.

`Nc1ccc(S(=O)(=O)Nc2nccs2)cc1` [Sulfathiazole] displayed a Z-score of 0.1226.

On to `O=C1C(CC[S+]([O-])c2ccccc2)C(=O)N(c2ccccc2)N1c1ccccc1` (stereo not drawn) [Sulfinpyrazone], for which the Z-score was −1.4016.

Compound `Cc1noc(NS(=O)(=O)c2ccc(N)cc2)c1C` [Sulfisoxazole] gave a Z-score of −0.0512.

As to `CC1=C(CC(=O)O)c2cc(F)ccc2/C1=C\c1ccc([S+](C)[O-])cc1` (stereo not drawn) [Sulindac], the Z-score amounted to 1.451.

As to `COc1cc([S+](C)[O-])ccc1-c1nc2ncccc2[nH]1` (stereo not drawn) [Sulmazole], the Z-score is listed as 0.4097.

Compound `CCCCCCCCNC(C)C(O)c1ccc(SC(C)C)cc1` (stereo not drawn) [Suloctidil] had a Z-score of 21.8147.

In turn, `CCN1CCCC1CNC(=O)c1cc(S(N)(=O)=O)ccc1OC` (stereo not drawn) [Sulpiride] showed a Z-score of −0.2187.

As to `CC(C(=O)O)c1ccc(C(=O)c2cccs2)cc1` (stereo not drawn) [Suprofen], the Z-score is listed as −0.7501.

For `CCCCC1(COC(=O)CCC(=O)O)C(=O)N(c2ccccc2)N(c2ccccc2)C1=O` [Suxibuzone], the Z-score is reported as −1.3282.

As for `CCOC(=O)Oc1c(OC)cc(C(=O)O[C@@H]2C[C@@H]3CN4CCc5c([nH]c6cc(OC)ccc56)[C@H]4C[C@@H]3[C@H](C(=O)OC)[C@H]2OC)cc1OC` [Syrosingopine], the Z-score is 0.3519.

Turning to `Cl.O=c1[nH]oc2c1CCNC2` [THIP Hydrochloride], the Z-score is −1.3776.

`Nc1c2c(nc3ccccc13)CCCC2` [Tacrine hydrochloride hydrate] showed a Z-score of −2.143.

In turn, `CC1(C)S[C@@H]2[C@H](NC(=O)[C@H](N)c3ccccc3)C(=O)N2[C@H]1C(=O)OC1OC(=O)c2ccccc21` (stereo partly drawn) [Talampicillin hydrochloride] yielded a Z-score of −0.9508.

In turn, `CC/C(=C(\c1ccccc1)c1ccc(OCCN(C)C)cc1)c1ccccc1` [Tamoxifen citrate] gave a Z-score of −1.1882.

With `Cc1scc2c1N(C(=O)CN1CCN(C)CC1)c1ccccc1NC2=O` [Telenzepine dihydrochloride], the Z-score was found to be 0.2257.

`CN1C(C(=O)Nc2ccccn2)=C(O)c2sccc2S1(=O)=O` [Tenoxicam]: the Z-score is −0.5016.

Turning to `COc1cc2nc(N3CCN(C(=O)C4CCCO4)CC3)nc(N)c2cc1OC` (stereo not drawn) [Terazosin hydrochloride], the Z-score is −0.0723.

As for `CC(C)N1CCN(c2ccc(OCC3COC(Cn4cncn4)(c4ccc(Cl)cc4Cl)O3)cc2)CC1` (stereo not drawn) [Terconazole], the Z-score was −0.3786.

For `CC(C)(C)c1ccc(C(O)CCCN2CCC(C(O)(c3ccccc3)c3ccccc3)CC2)cc1` (stereo not drawn) [Terfenadine], the Z-score was −0.8896.

`CCC(=O)O[C@H]1CC[C@H]2[C@@H]3CCC4=CC(=O)CC[C@]4(C)[C@H]3CC[C@]12C` [Testosterone propionate] returned a Z-score of 0.7489.

For `CCCCNc1ccc(C(=O)OCCN(C)C)cc1.Cl` [TetracaOne hydrochloride], the Z-score is given as −0.5979.

For `CN(C)[C@@H]1C(O)=C(C(N)=O)C(=O)[C@@]2(O)C(O)=C3C(=O)c4c(O)cccc4[C@@](C)(O)[C@H]3C[C@@H]12` [Tetracycline hydrochloride], the Z-score is given as −0.2579.

`O.O=C1C(O)=C(O)C(=O)C(O)=C1O` [Tetrahydroxy-1,4-quinone monohydrate] registered a Z-score of −1.5885.

`c1ccc2c(c1)CCCC2C1=NCCN1` (stereo not drawn) [Tetrahydrozoline hydrochloride] returned a Z-score of −0.9102.

Regarding `c1ccc(C2CN3CCSC3=N2)cc1` (stereo not drawn) [Tetramisole hydrochloride], the Z-score was 0.1333.

As for `COc1ccc2cc1Oc1ccc(cc1)C[C@H]1c3cc(c(OC)cc3CCN1C)Oc1c(OC)c(OC)cc3c1[C@H](C2)N(C)CC3` [Tetrandrine], the Z-score is −1.1905.

In the case of `O=C1CCC(N2C(=O)c3ccccc3C2=O)C(=O)N1` (stereo not drawn) [Thalidomide], the Z-score is recorded as −1.026.

As for `Cn1cnc2c1c(=O)[nH]c(=O)n2C` [Theobromine], the Z-score was found to be 0.09359.

For `Cn1c(=O)c2[nH]cnc2n(C)c1=O.O` [Theophylline monohydrate], the Z-score came to 0.7001.

`Cc1ncc(C[n+]2csc(CCO)c2C)c(N)n1` [Thiamine hydrochloride] displayed a Z-score of 1.576.

`CS(=O)(=O)c1ccc([C@@H](O)[C@@H](CO)NC(=O)C(Cl)Cl)cc1` [Thiamphenicol]: the Z-score amounted to 16.8903.

The compound `COc1c(O[C@@H]2O[C@H](CO)[C@@H](O)[C@H](O)[C@H]2O)cc2c(c1OC)-c1ccc(SC)c(=O)cc1[C@@H](NC(C)=O)CC2` [Thiocolchicoside] displayed a Z-score of 11.5611.

Compound `S=C(NC1CCCCC1)N1CCC(c2cnc[nH]2)CC1` [Thioperamide maleate] had a Z-score of −0.6114.

In the case of `CSc1ccc2c(c1)N(CCC1CCCCN1C)c1ccccc1S2` (stereo not drawn) [Thioridazine hydrochloride], the Z-score is −1.1212.

Turning to `O=C(O)CNC(=O)C(CS)Cc1ccccc1` (stereo not drawn) [Thiorphan], the Z-score worked out at 1.245.

`C=C(NC(=O)C(=C)NC(=O)c1csc(C2=N[C@@H]3c4csc(n4)[C@H]4NC(=O)c5csc(n5)[C@H]([C@](C)(O)[C@@H](C)O)NC(=O)[C@H]5CSC(=N5)/C(=C/C)NC(=O)[C@H]([C@@H](C)O)NC(=O)c5csc(n5)[C@]3(CC2)NC(=O)[C@H](C)NC(=O)C(=C)NC(=O)[C@H](C)NC(=O)[C@H]([C@@H](C)CC)N[C@@H]2C=Cc3c([C@H](C)O)cc(nc3[C@H]2O)C(=O)O[C@@H]4C)n1)C(N)=O` [Thiostrepton] gave a Z-score of 13.9158.

In turn, `CCCCCCCCCCCCCCCC[N+](C)(C)CCN(Cc1ccc(OC)cc1)c1ncccn1` [Thonzonium bromide] came in with a Z-score of 2.814.

In the case of `N[C@@H](Cc1cc(I)c(Oc2cc(I)c(O)c(I)c2)c(I)c1)C(=O)O` [Thyroxine (L)], the Z-score is reported as 0.1955.

Turning to `c1ccc2[nH]c(-c3cscn3)nc2c1` [Tiabendazole], the Z-score is listed as −0.3752.

In the case of `CCN(CC)CCNC(=O)c1cc(S(C)(=O)=O)ccc1OC` [Tiapride hydrochloride], the Z-score is on record as −1.0178.

Consider `CC(C(=O)O)c1ccc(C(=O)c2ccccc2)s1` (stereo not drawn) [Tiaprofenic acid], for which the Z-score is on record as −0.6271.

In the case of `CC1(C)S[C@@H]2[C@H](NC(=O)[C@H](C(=O)O)c3ccsc3)C(=O)N2[C@H]1C(=O)O` [Ticarcillin sodium], the Z-score is recorded as −0.1446.

For `Clc1ccccc1CN1CCc2sccc2C1` [Ticlopidine hydrochloride], the Z-score was −1.0702.

As to `CCNC1(c2cccs2)CCCCC1=O.Cl` (stereo not drawn) [Tiletamine hydrochloride], the Z-score is on record as 1.2858.

`CCS(=O)(=O)CCn1c([N+](=O)[O-])cnc1C` [Tinidazole] came in with a Z-score of −0.3977.

As for `NC[C@H]1O[C@H](O[C@H]2[C@H](O)[C@@H](O[C@H]3O[C@H](CO)[C@@H](O)[C@H](N)[C@H]3O)[C@H](N)C[C@@H]2N)[C@H](N)C[C@@H]1O` [Tobramycin], the Z-score worked out at 1.694.

With `Cc1cccc(C)c1NC(=O)C(C)N` (stereo not drawn) [Tocainide hydrochloride], the Z-score is 0.6038.

As for `Cc1ccc(S(=O)(=O)NC(=O)NN2CCCCCC2)cc1` [Tolazamide], the Z-score turned out to be 1.554.

In turn, `c1ccc(CC2=NCCN2)cc1` [Tolazoline hydrochloride] registered a Z-score of 0.3256.

`CCCCNC(=O)NS(=O)(=O)c1ccc(C)cc1` [Tolbutamide]: the Z-score was −0.8086.

As to `Cc1c(Cl)cccc1Nc1ccccc1C(=O)O` [Tolfenamic acid], the Z-score is −0.8256.

`Cc1ccc(C(=O)c2ccc(CC(=O)O)n2C)cc1` [Tolmetin sodium salt dihydrate] registered a Z-score of −1.0425.

The compound `Cc1cccc(N(C)C(=S)Oc2ccc3ccccc3c2)c1` [Tolnaftate] returned a Z-score of 0.2441.

For the compound `C[C@H]1CC[C@]2(NC1)O[C@H]1C[C@H]3[C@@H]4CC[C@H]5C[C@@H](O)CC[C@]5(C)[C@H]4CC[C@]3(C)[C@H]1[C@@H]2C` [Tomatidine], the Z-score was −0.7378.

In the case of `C[C@H]1CC[C@]2(NC1)O[C@H]1C[C@H]3[C@@H]4CC[C@H]5C[C@@H](O[C@@H]6O[C@H](CO)[C@H](O[C@@H]7O[C@H](CO)[C@@H](O)[C@H](O[C@@H]8OC[C@@H](O)[C@H](O)[C@H]8O)[C@H]7O[C@@H]7O[C@H](CO)[C@@H](O)[C@H](O)[C@H]7O)[C@H](O)[C@H]6O)CC[C@]5(C)[C@H]4CC[C@]3(C)[C@H]1[C@@H]2C` [Tomatine, reference compound], the Z-score is reported as −2.0901.
